Data on 11 compounds can be found in PubChem BioAssay (NCI).

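Tested at 5 concentrations; 48 h exposure; 96-well plates; endpoints linearly interpolated, else capped at highest concentration. Here, GI50 denotes the concentration required for 50% inhibition of growth. TGI denotes the concentration required for complete inhibition of growth.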

Some test systems named below: NCI-H522 lung; A498 renal; ACHN renal; OVCAR-3 ovarian; SK-MEL-28 melanoma; OVCAR-5 ovarian; NCI/ADR-RES ovarian; MOLT-4 leukemia; IGROV1 ovarian; HOP-92 NSCLC.
What all share (assay): growth of human tumour cells (NCI), 48 h

As to `COc1ccc(-c2cc(-c3cc(C)cc(Br)c3O)no2)cc1`, the TGI was 30.2 µM in the test with NCI-H522 lung; 13 µM with A498 renal; 24 µM in the test on ACHN renal; 23.9 µM in the test with OVCAR-3 ovarian; above 100 µM in the test with SK-MEL-28 melanoma; 88.9 µM with OVCAR-5 ovarian. In addition, the TGI in the test on NCI/ADR-RES ovarian, in the test with MOLT-4 leukemia and with IGROV1 ovarian was above 100 µM throughout.

For `CC12OC(C(=O)C13CC3)C1C(=O)c3ccc4c(ccc5ccccc54)c3C(=O)C12` (stereo not drawn), the GI50 in the test on NCI-H522 lung was 51.3 µM; in the test with SK-MEL-28 melanoma, 66.3 µM; in the test with HOP-92 NSCLC it was 27.5 µM; with OVCAR-5 ovarian, 30.1 µM; in the test on NCI/ADR-RES ovarian, 41.2 µM; in the test on MOLT-4 leukemia it was 28.9 µM. Moreover, in the test on IGROV1 ovarian, the GI50 was 28.9 µM. Besides, the TGI in the test with NCI-H522 lung, in the test with SK-MEL-28 melanoma, in the test on HOP-92 NSCLC, in the test on OVCAR-5 ovarian, with NCI/ADR-RES ovarian and with MOLT-4 leukemia was above 100 µM in each case. This compound registered a TGI in the test with IGROV1 ovarian above 100 µM.

Consider `CCc1nc2cc(F)c(/C=C/C(=O)NO)cc2c(=O)n1CCc1ccccc1`, for which the GI50 was 0.171 µM in the test on NCI-H522 lung; 0.149 µM in the test on A498 renal; 0.343 µM with ACHN renal; 0.323 µM in the test on OVCAR-3 ovarian; 0.381 µM in the test on SK-MEL-28 melanoma; 0.33 µM in the test on HOP-92 NSCLC. The GI50 with OVCAR-5 ovarian is 0.402 µM; with NCI/ADR-RES ovarian it was 0.284 µM; in the test on MOLT-4 leukemia, 0.353 µM. For the same compound, the TGI with NCI-H522 lung was 0.392 µM; in the test on A498 renal it was 0.736 µM; with ACHN renal, 2.56 µM; in the test on OVCAR-3 ovarian, 10.8 µM; in the test on SK-MEL-28 melanoma, 11.5 µM; with HOP-92 NSCLC, 4.87 µM. Also, the TGI in the test on OVCAR-5 ovarian was 17.6 µM; in the test with NCI/ADR-RES ovarian, 0.982 µM; in the test on MOLT-4 leukemia, 29.1 µM.

Take `N#Cc1cc(-c2cc3ccccc3o2)oc1N`: the GI50 in the test with NCI-H522 lung is 2.41 µM; in the test on A498 renal it was 1.76 µM; with ACHN renal it was 3 µM; in the test on OVCAR-3 ovarian, 1.98 µM; with SK-MEL-28 melanoma, 6.54 µM; with OVCAR-5 ovarian, 4.34 µM. The GI50 is 3.71 µM in the test on NCI/ADR-RES ovarian, 1.94 µM with MOLT-4 leukemia and 1.76 µM with IGROV1 ovarian. Besides, the TGI in the test on NCI-H522 lung was found to be 12.6 µM; with A498 renal it was 4.68 µM; in the test with ACHN renal, 11.1 µM; in the test on OVCAR-3 ovarian, 6.38 µM; in the test on SK-MEL-28 melanoma, 19.7 µM; with OVCAR-5 ovarian it was 30.6 µM. In addition, the TGI with NCI/ADR-RES ovarian was above 100 µM; in the test with MOLT-4 leukemia, 6.64 µM; in the test on IGROV1 ovarian, 6.35 µM.

As for `Cc1cc(NC(=S)SCc2ccc(F)cc2)c([N+](=O)[O-])cc1C`, the TGI in the test with ACHN renal was above 100 µM; in the test with OVCAR-3 ovarian, 54.6 µM; in the test on SK-MEL-28 melanoma, above 100 µM; with HOP-92 NSCLC, 68 µM; in the test on OVCAR-5 ovarian it was 54.7 µM; in the test on NCI/ADR-RES ovarian, 62.2 µM. In the test with MOLT-4 leukemia, this compound registered a TGI of 16.9 µM.

As to `O=C(CC(=O)n1nc(-c2ccccc2)c(N=Nc2ccc(Cl)cc2)c1-c1ccccc1)Nc1ccc(Cl)cc1`, the TGI with NCI-H522 lung, in the test with A498 renal, in the test with ACHN renal, in the test with OVCAR-3 ovarian, with SK-MEL-28 melanoma and in the test on HOP-92 NSCLC was above 100 µM throughout. The TGI with OVCAR-5 ovarian, in the test on MOLT-4 leukemia and in the test with IGROV1 ovarian was above 100 µM each time.

On to `C=C(C)[C@@H]1CC[C@]2(CO)CC[C@]3(C)[C@H](CC[C@@H]4[C@@]5(C)C=C(C#N)C(=O)C(C)(C)[C@@H]5CC[C@]43C)[C@@H]12`, for which the GI50 in the test with NCI-H522 lung is 1.9 µM; in the test with A498 renal it was 1.37 µM; in the test with ACHN renal, 1.72 µM; in the test with OVCAR-3 ovarian, 1.27 µM; in the test with HOP-92 NSCLC it was 2.22 µM; in the test with OVCAR-5 ovarian, 2.13 µM. For the same compound, the values for the GI50 in the test on NCI/ADR-RES ovarian and with IGROV1 ovarian were 1.81 µM and 0.684 µM, respectively. In addition, the TGI amounted to 6.58 µM in the test with NCI-H522 lung; 2.99 µM in the test with A498 renal; 4.77 µM in the test on ACHN renal; 2.73 µM with OVCAR-3 ovarian; 5.15 µM in the test with HOP-92 NSCLC; 5.75 µM in the test with OVCAR-5 ovarian. For the same compound, the TGI in the test on NCI/ADR-RES ovarian came to 5.04 µM; in the test on IGROV1 ovarian it was 4.65 µM.

For the compound `CC1(C)C(=O)/C(=C\c2cccnc2)C[C@]2(C)[C@H]3CC[C@@H]4[C@H]5[C@H](C(=O)/C=C/c6cccnc6)CC[C@]5(C(=O)O)CC[C@@]4(C)[C@]3(C)CC[C@@H]12`, the GI50 was 2.35 µM with NCI-H522 lung; 1.92 µM in the test on A498 renal; 1.69 µM in the test with ACHN renal; 1.76 µM with OVCAR-3 ovarian; 2.16 µM with SK-MEL-28 melanoma; 2.31 µM in the test on HOP-92 NSCLC. The figures for the GI50 in the test with OVCAR-5 ovarian, in the test with NCI/ADR-RES ovarian and with MOLT-4 leukemia were 2.44 µM, 3.08 µM and 2.22 µM, respectively. Moreover, the TGI came out at 5.99 µM in the test with NCI-H522 lung; 3.44 µM with A498 renal; 3.06 µM in the test on ACHN renal; 3.42 µM in the test with OVCAR-3 ovarian; 4.39 µM in the test on SK-MEL-28 melanoma; 7.64 µM in the test with HOP-92 NSCLC. For the same compound, the TGI with OVCAR-5 ovarian is 4.88 µM; with NCI/ADR-RES ovarian it was above 100 µM; in the test on MOLT-4 leukemia it was 11.5 µM.

For the compound `COc1cc(/C=C/c2ccc(OC)c(O)c2)cc(OC)c1`, the TGI in the test on NCI-H522 lung was 4.49 µM; in the test with A498 renal, above 100 µM; in the test on ACHN renal, 41.2 µM; with OVCAR-3 ovarian, 4.88 µM; in the test with SK-MEL-28 melanoma, 24.5 µM; in the test with HOP-92 NSCLC, 29.4 µM. Besides, the values for the TGI in the test on OVCAR-5 ovarian, in the test on MOLT-4 leukemia and in the test with IGROV1 ovarian were 89.1 µM, 15.7 µM and 86.4 µM, respectively.

For `COc1cc2c3c(n(CCCN)c(=O)c2cc1OC)-c1ccc(C#N)cc1C3=O`, the GI50 is 9.61 µM in the test on NCI-H522 lung; 14.9 µM in the test on ACHN renal; 19.1 µM with OVCAR-3 ovarian; 18.5 µM in the test with SK-MEL-28 melanoma; 18 µM in the test on OVCAR-5 ovarian; 48 µM in the test on NCI/ADR-RES ovarian. Besides, the GI50 in the test on MOLT-4 leukemia is 0.748 µM; with IGROV1 ovarian, 8.79 µM. Moreover, the TGI was above 100 µM with NCI-H522 lung; 28.5 µM with ACHN renal; 39.9 µM in the test with OVCAR-3 ovarian; 35.7 µM in the test on SK-MEL-28 melanoma; 33.2 µM in the test with OVCAR-5 ovarian; above 100 µM in the test on NCI/ADR-RES ovarian. In addition, the values for the TGI with MOLT-4 leukemia and in the test with IGROV1 ovarian were 3.49 µM and above 100 µM, respectively.

`CC(C)c1c(O)c(O)c2c(c1O)C(=O)C(O)=C1C(C)(C)CCC[C@@]12C`: the TGI in the test with NCI-H522 lung stood at 13.4 µM; in the test on A498 renal it was 11.9 µM; in the test with ACHN renal, 11.3 µM; in the test with OVCAR-3 ovarian, 16.2 µM; in the test on SK-MEL-28 melanoma, 17.7 µM; in the test on HOP-92 NSCLC it was 5.63 µM. In addition, the TGI in the test with OVCAR-5 ovarian turned out to be 19.5 µM; in the test on MOLT-4 leukemia it was 5.99 µM; with IGROV1 ovarian it was 13.9 µM.
